From ChEMBL document CHEMBL1150317, “Discovery of aryl aminoquinazoline pyridones as potent, selective, and orally efficacious inhibitors of receptor tyrosine kinase c-Kit” (J Med Chem, 2008)

How the values were obtained:
[1] = Inhibition of CAMK2 at 1 uM relative to control
[2] = Volume of distribution at steady state in Sprague-Dawley rat at 1 mg/kg, iv; format: ADME, organism-based; set-up: dose 1 mg/kg, route intravenous; conditions: in vivo, read-out: Vdss
[3] = target: MAP kinase-activated protein kinase 2 (Homo sapiens) (UniProt P49137); assay: Inhibition of MAPKAPK2 at 1 uM relative to control
MAP kinase-activated protein kinase 2 (Homo sapiens), sequence (P49137 whole entry, looked up): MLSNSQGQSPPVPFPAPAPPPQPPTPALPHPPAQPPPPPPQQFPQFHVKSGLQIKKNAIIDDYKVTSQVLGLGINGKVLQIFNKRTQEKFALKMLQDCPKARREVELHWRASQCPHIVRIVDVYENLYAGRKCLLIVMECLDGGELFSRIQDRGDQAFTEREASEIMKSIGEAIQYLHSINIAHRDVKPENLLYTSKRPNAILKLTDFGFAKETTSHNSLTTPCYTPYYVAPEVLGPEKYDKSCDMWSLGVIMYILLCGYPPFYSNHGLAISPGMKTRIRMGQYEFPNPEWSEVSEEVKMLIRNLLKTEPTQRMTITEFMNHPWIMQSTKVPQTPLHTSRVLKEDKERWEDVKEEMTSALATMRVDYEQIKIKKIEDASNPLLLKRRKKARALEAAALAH

[4] = target: Mitogen-activated protein kinase 1 (Homo sapiens) (UniProt P28482); assay: Inhibition of ERK2 at 1 uM relative to control
[5] = target: Tyrosine-protein kinase ABL1 (Homo sapiens, UniProt P00519); assay: Inhibition of Abl by TR-FRET assay
[6] = target: RAF proto-oncogene serine/threonine-protein kinase (Homo sapiens) (UniProt P04049); assay: Inhibition of CRAF at 1 uM relative to control
[7] = target: RAC-alpha serine/threonine-protein kinase (Homo sapiens) (UniProt P31749); assay: Inhibition of AKT1 at 1 uM relative to control
[8] = target: Serine/threonine-protein kinase Chk2 (Homo sapiens) (UniProt O96017); assay: Inhibition of CHK2 at 1 uM relative to control
[9] = target: T1, Mast/stem cell growth factor receptor Kit (Homo sapiens, UniProt P10721)
T1 sequence (P10721 whole entry): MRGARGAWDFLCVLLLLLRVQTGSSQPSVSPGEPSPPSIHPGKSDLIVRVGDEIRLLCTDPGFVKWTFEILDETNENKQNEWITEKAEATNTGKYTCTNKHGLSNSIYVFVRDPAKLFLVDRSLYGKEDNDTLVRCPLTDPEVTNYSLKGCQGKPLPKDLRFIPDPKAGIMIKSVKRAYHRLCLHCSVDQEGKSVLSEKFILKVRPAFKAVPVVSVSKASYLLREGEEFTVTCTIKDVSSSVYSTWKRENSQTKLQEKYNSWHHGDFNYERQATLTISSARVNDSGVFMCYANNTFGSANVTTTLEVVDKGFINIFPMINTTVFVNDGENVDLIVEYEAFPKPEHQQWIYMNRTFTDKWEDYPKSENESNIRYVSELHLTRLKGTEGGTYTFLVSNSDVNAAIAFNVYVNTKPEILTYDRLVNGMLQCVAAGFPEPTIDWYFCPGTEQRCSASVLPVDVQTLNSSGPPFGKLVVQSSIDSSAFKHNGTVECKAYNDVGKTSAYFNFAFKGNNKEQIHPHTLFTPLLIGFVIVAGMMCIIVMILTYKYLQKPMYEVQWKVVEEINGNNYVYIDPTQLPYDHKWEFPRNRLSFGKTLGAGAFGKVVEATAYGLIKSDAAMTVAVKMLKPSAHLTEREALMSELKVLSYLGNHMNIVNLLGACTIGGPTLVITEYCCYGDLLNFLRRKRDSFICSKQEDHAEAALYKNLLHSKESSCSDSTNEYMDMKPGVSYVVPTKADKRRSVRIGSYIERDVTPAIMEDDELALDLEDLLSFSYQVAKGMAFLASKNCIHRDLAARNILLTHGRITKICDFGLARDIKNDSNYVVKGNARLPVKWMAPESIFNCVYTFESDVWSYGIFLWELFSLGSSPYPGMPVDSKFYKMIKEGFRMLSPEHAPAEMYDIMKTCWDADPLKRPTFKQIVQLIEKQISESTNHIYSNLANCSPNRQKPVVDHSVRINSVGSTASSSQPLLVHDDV
Description: Inhibition of SCF-induced phosphorylation of c-Kit in MO7e cells by TR-FRET assay

[10] = target: Serine/threonine-protein kinase PAK 2 (Homo sapiens) (UniProt Q13177); assay: Inhibition of PAK2 at 1 uM relative to control
[11] = target: Ribosomal protein S6 kinase beta-1 (Homo sapiens) (UniProt P23443); assay: Inhibition of P70S6 at 1 uM relative to control
[12] = Inhibition of p38 by TR-FRET assay
[13] = target: 5'-AMP-activated protein kinase subunit beta-1 (Homo sapiens) (UniProt Q9Y478); assay: Inhibition of AMPK at 1 uM relative to control
5'-AMP-activated protein kinase subunit beta-1 (Homo sapiens), sequence (Q9Y478 whole entry): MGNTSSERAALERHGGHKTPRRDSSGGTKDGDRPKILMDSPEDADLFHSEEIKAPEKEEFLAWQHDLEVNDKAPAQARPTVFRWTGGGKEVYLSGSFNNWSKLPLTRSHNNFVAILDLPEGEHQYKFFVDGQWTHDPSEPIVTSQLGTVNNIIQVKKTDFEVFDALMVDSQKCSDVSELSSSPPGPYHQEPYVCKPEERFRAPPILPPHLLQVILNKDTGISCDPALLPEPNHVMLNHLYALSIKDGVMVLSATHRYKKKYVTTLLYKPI

[14] = target: Rho-associated protein kinase 2 (Homo sapiens) (UniProt O75116); assay: Inhibition of ROCK2 at 1 uM relative to control
[15] = target: Interleukin-1 receptor-associated kinase 4 (Homo sapiens) (UniProt Q9NWZ3); assay: Inhibition of IRAK4 at 1 uM relative to control
[16] = AUC (0 to t) in Sprague-Dawley rat at 10 mg/kg, po; format: ADME, organism-based; set-up: dose 10 mg/kg, route oral; conditions: plasma
[17] = target: Tyrosine-protein kinase BTK (Homo sapiens) (UniProt Q06187); assay: Inhibition of BTK at 1 uM relative to control
[18] = Half life in Sprague-Dawley rat at 10 mg/kg, po; format: ADME, organism-based; set-up: dose 10 mg/kg, route oral; conditions: in vivo
[19] = target: Mitogen-activated protein kinase kinase kinase 7 (Homo sapiens) (UniProt O43318); assay: Inhibition of TAK1 at 1 uM relative to control
Mitogen-activated protein kinase kinase kinase 7 (Homo sapiens), sequence (O43318 whole entry): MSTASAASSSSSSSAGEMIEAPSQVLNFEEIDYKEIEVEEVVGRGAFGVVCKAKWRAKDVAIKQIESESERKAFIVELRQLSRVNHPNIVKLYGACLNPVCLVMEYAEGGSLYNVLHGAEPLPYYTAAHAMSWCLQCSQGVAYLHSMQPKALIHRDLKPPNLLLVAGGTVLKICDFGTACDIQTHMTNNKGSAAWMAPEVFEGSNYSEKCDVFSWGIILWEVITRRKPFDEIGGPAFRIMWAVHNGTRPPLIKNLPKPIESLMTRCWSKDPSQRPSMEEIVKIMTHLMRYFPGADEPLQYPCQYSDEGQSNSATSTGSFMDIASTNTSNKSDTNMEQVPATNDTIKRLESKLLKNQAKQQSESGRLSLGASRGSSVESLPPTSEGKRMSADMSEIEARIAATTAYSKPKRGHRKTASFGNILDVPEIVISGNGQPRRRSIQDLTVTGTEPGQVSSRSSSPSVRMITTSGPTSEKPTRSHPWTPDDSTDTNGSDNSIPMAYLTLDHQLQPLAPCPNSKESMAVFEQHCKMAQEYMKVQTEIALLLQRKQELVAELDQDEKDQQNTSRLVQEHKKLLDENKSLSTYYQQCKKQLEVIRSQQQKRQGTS

[20] = Inhibition of EDK2 at 1 uM relative to control
[21] = target: Insulin receptor (Homo sapiens) (UniProt P06213); assay: Inhibition of INSR at 1 uM relative to control
[22] = target: MAP kinase-activated protein kinase 5 (Homo sapiens) (UniProt Q8IW41); assay: Inhibition of PRAK at 1 uM relative to control
[23] = target: Serine/threonine-protein kinase Sgk1 (Homo sapiens) (UniProt O00141); assay: Inhibition of SGK1 at 1 uM relative to control
[24] = target: Serine/threonine-protein kinase D2 (Homo sapiens) (UniProt Q9BZL6); assay: Inhibition of PKD2 at 1 uM relative to control
Serine/threonine-protein kinase D2 (Homo sapiens), sequence (Q9BZL6 whole entry, canonical isoform): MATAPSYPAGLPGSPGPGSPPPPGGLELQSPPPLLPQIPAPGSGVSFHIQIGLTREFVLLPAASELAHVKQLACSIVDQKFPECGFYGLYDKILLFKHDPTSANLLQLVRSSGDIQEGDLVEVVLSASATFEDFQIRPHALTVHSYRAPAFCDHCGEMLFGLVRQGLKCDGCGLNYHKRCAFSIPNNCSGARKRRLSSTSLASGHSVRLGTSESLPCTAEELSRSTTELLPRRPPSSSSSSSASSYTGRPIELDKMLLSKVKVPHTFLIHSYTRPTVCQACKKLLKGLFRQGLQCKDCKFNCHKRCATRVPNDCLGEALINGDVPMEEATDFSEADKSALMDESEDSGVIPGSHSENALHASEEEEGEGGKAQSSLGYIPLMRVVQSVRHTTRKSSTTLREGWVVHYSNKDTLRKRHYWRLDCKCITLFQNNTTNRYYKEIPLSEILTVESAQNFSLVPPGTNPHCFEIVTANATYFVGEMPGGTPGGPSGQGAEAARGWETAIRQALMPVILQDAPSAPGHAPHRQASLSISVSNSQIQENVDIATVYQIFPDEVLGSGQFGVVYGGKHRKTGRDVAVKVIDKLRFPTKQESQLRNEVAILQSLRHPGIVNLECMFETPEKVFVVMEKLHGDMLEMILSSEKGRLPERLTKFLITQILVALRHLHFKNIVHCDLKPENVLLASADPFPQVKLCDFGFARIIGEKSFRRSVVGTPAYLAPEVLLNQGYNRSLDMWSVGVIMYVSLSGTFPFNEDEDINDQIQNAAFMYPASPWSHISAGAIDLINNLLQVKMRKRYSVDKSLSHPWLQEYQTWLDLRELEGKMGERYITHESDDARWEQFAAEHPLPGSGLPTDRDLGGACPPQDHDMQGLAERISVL

[25] = target: Casein kinase I isoform delta (Homo sapiens) (UniProt P48730); assay: Inhibition of CK1delta at 1 uM relative to control
Casein kinase I isoform delta (Homo sapiens), sequence (P48730 whole entry, looked up, canonical isoform): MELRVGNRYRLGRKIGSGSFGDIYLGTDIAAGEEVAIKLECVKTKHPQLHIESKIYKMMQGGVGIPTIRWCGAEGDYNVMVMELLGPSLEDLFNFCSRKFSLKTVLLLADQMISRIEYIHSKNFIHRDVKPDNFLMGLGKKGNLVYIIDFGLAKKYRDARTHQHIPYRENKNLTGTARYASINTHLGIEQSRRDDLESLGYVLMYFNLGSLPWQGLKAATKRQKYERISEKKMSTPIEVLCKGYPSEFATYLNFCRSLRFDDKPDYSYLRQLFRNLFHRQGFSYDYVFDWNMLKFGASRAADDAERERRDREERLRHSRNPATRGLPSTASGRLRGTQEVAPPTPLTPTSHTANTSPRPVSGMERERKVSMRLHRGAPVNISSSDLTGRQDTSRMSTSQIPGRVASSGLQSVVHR

[26] = target: Glycogen synthase kinase-3 beta (Homo sapiens) (UniProt P49841); assay: Inhibition of GSK3-beta at 1 uM relative to control
Glycogen synthase kinase-3 beta (Homo sapiens), sequence (P49841 whole entry, looked up): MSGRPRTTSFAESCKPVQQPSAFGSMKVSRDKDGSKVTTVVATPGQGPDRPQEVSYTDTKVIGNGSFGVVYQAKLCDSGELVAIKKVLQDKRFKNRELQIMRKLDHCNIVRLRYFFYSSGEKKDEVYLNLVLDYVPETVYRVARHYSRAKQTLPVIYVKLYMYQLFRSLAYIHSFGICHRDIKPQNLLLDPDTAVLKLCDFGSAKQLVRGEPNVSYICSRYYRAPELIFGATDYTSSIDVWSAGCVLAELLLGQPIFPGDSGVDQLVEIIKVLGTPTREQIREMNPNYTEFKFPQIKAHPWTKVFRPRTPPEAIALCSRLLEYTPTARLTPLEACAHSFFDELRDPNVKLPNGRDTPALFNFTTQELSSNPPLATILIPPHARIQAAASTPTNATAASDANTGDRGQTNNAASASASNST

[27] = target: Protein kinase C zeta type (Homo sapiens) (UniProt Q05513); assay: Inhibition of PKCzeta at 1 uM relative to control
[28] = target: Tyrosine-protein kinase Lck (Homo sapiens, UniProt P06239)
Tyrosine-protein kinase Lck, sequence (P06239 whole entry): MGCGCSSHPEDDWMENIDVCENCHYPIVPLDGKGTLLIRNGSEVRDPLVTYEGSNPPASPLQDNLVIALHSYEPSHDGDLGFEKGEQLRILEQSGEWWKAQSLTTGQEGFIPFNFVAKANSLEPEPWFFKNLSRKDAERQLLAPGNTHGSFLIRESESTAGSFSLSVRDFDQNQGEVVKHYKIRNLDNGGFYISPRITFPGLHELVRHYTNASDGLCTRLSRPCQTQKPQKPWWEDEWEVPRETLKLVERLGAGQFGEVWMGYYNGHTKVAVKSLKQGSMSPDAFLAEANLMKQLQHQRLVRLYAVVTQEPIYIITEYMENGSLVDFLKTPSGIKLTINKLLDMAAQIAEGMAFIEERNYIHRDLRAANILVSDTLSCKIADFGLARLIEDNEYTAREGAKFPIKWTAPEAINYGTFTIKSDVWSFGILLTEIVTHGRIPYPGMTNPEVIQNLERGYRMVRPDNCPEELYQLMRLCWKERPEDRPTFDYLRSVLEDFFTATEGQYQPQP
Description: Inhibition of Lck by TR-FRET assay

[29] = target: Serine/threonine-protein kinase 3 (Homo sapiens) (UniProt Q13188); assay: Inhibition of MST2 at 1 uM relative to control
[30] = target: Calcium/calmodulin-dependent protein kinase type IV (Homo sapiens) (UniProt Q16566); assay: Inhibition of CAMK4 at 1 uM relative to control
[31] = target: Proto-oncogene tyrosine-protein kinase Src (Homo sapiens, UniProt P12931)
Proto-oncogene tyrosine-protein kinase Src, sequence (P12931 2-536 limits assumed): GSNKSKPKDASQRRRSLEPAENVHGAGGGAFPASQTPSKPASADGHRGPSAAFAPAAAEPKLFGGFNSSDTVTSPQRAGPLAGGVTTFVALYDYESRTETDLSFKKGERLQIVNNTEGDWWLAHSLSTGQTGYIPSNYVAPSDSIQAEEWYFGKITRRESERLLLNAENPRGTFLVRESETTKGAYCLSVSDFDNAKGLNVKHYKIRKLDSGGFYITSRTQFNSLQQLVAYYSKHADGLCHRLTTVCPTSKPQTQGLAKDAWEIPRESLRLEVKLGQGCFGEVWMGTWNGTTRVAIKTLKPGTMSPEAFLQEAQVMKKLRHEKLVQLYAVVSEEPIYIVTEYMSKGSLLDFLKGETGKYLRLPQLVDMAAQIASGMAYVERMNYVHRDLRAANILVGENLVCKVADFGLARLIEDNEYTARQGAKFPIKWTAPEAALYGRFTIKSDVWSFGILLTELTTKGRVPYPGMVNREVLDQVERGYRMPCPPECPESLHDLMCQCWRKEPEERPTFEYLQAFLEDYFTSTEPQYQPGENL
Description: Inhibition of Src by TR-FRET assay

[32] = target: Fibroblast growth factor receptor 1 (Homo sapiens) (UniProt P11362); assay: Inhibition of FGFR1 at 1 uM relative to control
[33] = target: Dual specificity tyrosine-phosphorylation-regulated kinase 1A (Homo sapiens) (UniProt Q13627); assay: Inhibition of DYRK1alpha at 1 uM relative to control
[34] = target: Aurora kinase A (Homo sapiens) (UniProt O14965); assay: Inhibition of AurA at 1 uM relative to control
[35] = target: Serine/threonine-protein kinase Chk1 (Homo sapiens) (UniProt O14757); assay: Inhibition of CHK1 at 1 uM relative to control
[36] = target: Serine/threonine-protein kinase pim-2 (Homo sapiens) (UniProt Q9P1W9); assay: Inhibition of PIM2 at 1 uM relative to control
[37] = target: Hepatocyte growth factor receptor (Homo sapiens) (UniProt P08581); assay: Inhibition of MET at 1 uM relative to control
[38] = target: Insulin-like growth factor 1 receptor (Homo sapiens) (UniProt P08069); assay: Inhibition of IGFIR at 1 uM relative to control
[39] = target: T1, Mast/stem cell growth factor receptor Kit; remark: listed apart in the source
Description: Inhibition of c-Kit by TR-FRET assay

[40] = Inhibition of HGK at 1 uM relative to control
[41] = Oral bioavailability in Sprague-Dawley rat at 10 mg/kg; format: ADME, organism-based; conditions: in vivo
[42] = target: Vascular endothelial growth factor receptor 2 (Homo sapiens, UniProt P35968)
Description: Inhibition of KDR by TR-FRET assay

[43] = target: Ribosomal protein S6 kinase alpha-1 (Homo sapiens) (UniProt Q15418); assay: Inhibition of RSK1 at 1 uM relative to control
[44] = target: Protein kinase C beta type (Homo sapiens) (UniProt P05771); assay: Inhibition of PKCbeta2 at 1 uM relative to control
[45] = target: RAC-beta serine/threonine-protein kinase (Homo sapiens) (UniProt P31751); assay: Inhibition of AKT2 at 1 uM relative to control
[46] = Clearance in Sprague-Dawley rat at 1 mg/kg, iv; format: ADME, organism-based; set-up: dose 1 mg/kg, route intravenous; conditions: in vivo
[47] = Inhibition of PKGalpha at 1 uM relative to control
[48] = target: Serine/threonine-protein kinase MARK1 (Homo sapiens) (UniProt Q9P0L2); assay: Inhibition of MARK1 at 1 uM relative to control
[49] = target: Mitogen-activated protein kinase 3 (Homo sapiens) (UniProt P27361); assay: Inhibition of ERK1 at 1 uM relative to control
[50] = target: Tyrosine-protein kinase SYK (Homo sapiens) (UniProt P43405); assay: Inhibition of SYK at 1 uM relative to control
[51] = Inhibition of PKA at 1 uM relative to control
[52] = target: Receptor-type tyrosine-protein kinase FLT3 (Homo sapiens) (UniProt P36888); assay: Inhibition of FLT3 at 1 uM relative to control
[53] = Cmax in Sprague-Dawley rat at 10 mg/kg, po; format: ADME, organism-based; set-up: dose 10 mg/kg, route oral; conditions: in vivo

Question: For `Cc1ccn(-c2ccc(-c3ncco3)cc2)c(=O)c1-c1ccc2nc(N)ncc2c1`, which inhibition [1] is on record?
Answer: > 50%

Question: And the Vd [2]?
Answer: 1.59 L/kg

Question: What about the inhibition [3] of the same compound?
Answer: > 50%

Question: What about the inhibition [4] of the same compound?
Answer: > 50%

Question: And the IC50 [5]?
Answer: > 25 µM

Question: And the inhibition [6]?
Answer: > 50%

Question: What about the inhibition [7] of the same compound?
Answer: > 50%

Question: What about the inhibition [8] of the same compound?
Answer: > 50%

Question: And the IC50 [9]?
Answer: 0.016 µM

Question: And the inhibition [10]?
Answer: > 50%

Question: And the inhibition [11]?
Answer: > 50%

Question: What about the IC50 [12] of the same compound?
Answer: 40 µM

Question: What about the inhibition [13] of the same compound?
Answer: > 50%

Question: What about the inhibition [14] of the same compound?
Answer: > 50%

Question: What about the inhibition [15] of the same compound?
Answer: > 50%

Question: What about the AUC(0-t) [16] of the same compound?
Answer: 9860 ng·h/mL

Question: And the inhibition [17]?
Answer: > 50%

Question: What about the half-life [18] of the same compound?
Answer: 2.6 h

Question: What about the inhibition [19] of the same compound?
Answer: > 50%

Question: And the inhibition [20]?
Answer: > 50%

Question: What about the inhibition [21] of the same compound?
Answer: > 50%

Question: What about the inhibition [22] of the same compound?
Answer: > 50%

Question: What about the inhibition [23] of the same compound?
Answer: > 50%

Question: And the inhibition [24]?
Answer: > 50%

Question: And the inhibition [25]?
Answer: > 50%

Question: What about the inhibition [26] of the same compound?
Answer: > 50%

Question: And the inhibition [27]?
Answer: > 50%

Question: What about the IC50 [28] of the same compound?
Answer: 7.8 µM

Question: And the inhibition [29]?
Answer: > 50%

Question: What about the inhibition [30] of the same compound?
Answer: > 50%

Question: What about the IC50 [31] of the same compound?
Answer: > 5 µM

Question: What about the inhibition [32] of the same compound?
Answer: > 50%

Question: And the inhibition [33]?
Answer: > 50%

Question: And the inhibition [34]?
Answer: > 50%

Question: And the inhibition [35]?
Answer: > 50%

Question: What about the inhibition [36] of the same compound?
Answer: > 50%

Question: And the inhibition [37]?
Answer: > 50%

Question: What about the inhibition [38] of the same compound?
Answer: > 50%

Question: And the IC50 [39]?
Answer: 0.022 µM

Question: And the inhibition [40]?
Answer: > 50%

Question: And the bioavailability [41]?
Answer: 39%

Question: What about the IC50 [42] of the same compound?
Answer: > 5 µM

Question: What about the inhibition [43] of the same compound?
Answer: > 50%

Question: And the inhibition [44]?
Answer: > 50%

Question: And the inhibition [45]?
Answer: > 50%

Question: What about the clearance [46] of the same compound?
Answer: 7.67 mL/min/kg

Question: What about the inhibition [47] of the same compound?
Answer: > 50%

Question: What about the inhibition [48] of the same compound?
Answer: > 50%

Question: And the inhibition [49]?
Answer: > 50%

Question: And the inhibition [50]?
Answer: > 50%

Question: And the inhibition [51]?
Answer: > 50%

Question: And the inhibition [52]?
Answer: > 50%

Question: What about the Cmax [53] of the same compound?
Answer: 1230 ng/mL
